Molecular target: T1, Phosphorylated rglkA (Staphylococcus aureus, UniProt H6UH58)
T1 construct: gene glcK; recombinant from clone glkA1, nickel-column purified (His tag implied); phosphorylated in vitro by S. aureus rBYK (tyrosine; site not determined)
Test: coupled glucose-6-phosphate dehydrogenase assay, […] nm; Hanes-Woolf plot
Type: biochemical
Details: ATP, 0.5 mM MgCl2, NADP, 60 mM Tris-HCl pH 7.5, 37 °C; enzyme phosphorylated by BYK

T1 sequence (H6UH58 entry or part of it): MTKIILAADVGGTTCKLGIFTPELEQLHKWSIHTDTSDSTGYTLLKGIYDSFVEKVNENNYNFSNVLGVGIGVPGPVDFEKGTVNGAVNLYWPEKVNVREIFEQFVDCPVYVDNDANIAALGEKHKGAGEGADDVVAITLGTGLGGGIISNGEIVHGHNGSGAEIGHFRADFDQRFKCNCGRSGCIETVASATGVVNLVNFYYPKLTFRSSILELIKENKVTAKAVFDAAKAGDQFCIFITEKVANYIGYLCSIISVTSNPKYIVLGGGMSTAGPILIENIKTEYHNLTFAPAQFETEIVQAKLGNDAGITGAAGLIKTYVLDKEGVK

OC[C@H]1OC(O)[C@H](O)[C@@H](O)[C@@H]1O (stereo partly shown) [glucose]
Km: 5.18 ± 0.5 mM

Reference: publication PMC5274716, “Phosphorylation of Staphylococcus aureus Protein-Tyrosine Kinase Affects the Function of Glucokinase and Biofilm Formation” (Iranian Biomedical Journal, 2017)
